This is an account of results in DBAASP.

Some test systems named below: Vibrio alginolyticus; Vibrio parahaemolyticus; Lactococcus garvieae; Vibrio harveyi; Streptococcus iniae.
Holding throughout (experiment): ≥ marks a high value that may be exact or a test limit, other limits are often not marked, values filed in µg/mL are converted to µM
The subject of assay [1] is Staphylococcus epidermidis ATCC 12228.
The test system of assay [2] is Escherichia coli DH5alpha.
Assay [3] concerns Staphylococcus aureus ATCC 6538.
The subject of assay [4] is Micrococcus luteus ATCC 4698.
In assay [5] the test system is Streptococcus equinus BCRC 14729.
Assay [6] has as its system Vibrio alginolyticus BCRC 12829.
Assay [7] relates to Vibrio parahaemolyticus BCRC 10806.
Assay [8] has as its system Escherichia coli BCRC 10675.
In assay [9] the test system is Pseudomonas aeruginosa BCRC 10944.
The subject of assay [10] is Vibrio anguillarum serotype O1.
Assay [11] deals with Enterobacter cloacae BCRC 10401.
The subject of assay [12] is Klebsiella aerogenes BCRC 10370.
Assay [13] deals with Listeria monocytogenes BCRC 14845.
Assay [14] has as its system Staphylococcus xylosus BCRC 12930.
In assay [15] the test system is Staphylococcus aureus BCRC 10780.
Assay [16] concerns Klebsiella oxytoca BCRC 13985.
The subject of assay [17] is Yersinia enterocolitica BCRC 13999.
The subject of assay [18] is Staphylococcus aureus BCRC 10781.

The term MIC denotes the lowest concentration found to suppress growth. Higher therefore signals a need for much substance.

In brackets after ≈: the same amount, converted by molar mass.

Regarding `CC(C)C[C@H](NC(=O)[C@H](CC(C)C)NC(=O)[C@H](CCCCN)NC(=O)[C@H](CO)NC(=O)[C@H](CC(C)C)NC(=O)[C@H](C)NC(=O)[C@H](CCCCN)NC(=O)[C@@H](NC(=O)[C@@H](NC(=O)[C@H](C)NC(=O)CNC(=O)[C@H](CC(C)C)NC(=O)[C@@H](N)Cc1ccccc1)C(C)C)C(C)C)C(=O)O` [FLGAVVKALSKLL], the MIC in [1] is 29.4 µM (≈ 40 µg/mL); in assay [2], ≥ 36.8 µM; in assay [3], 19.1 µM (≈ 26 µg/mL); in assay [4] it was 10.3 µM (≈ 14 µg/mL).

For the compound `CC(C)C[C@H](NC(=O)[C@H](CC(C)C)NC(=O)[C@H](CCCCN)NC(=O)[C@H](CO)NC(=O)[C@H](CC(C)C)NC(=O)[C@@H](NC(=O)[C@H](CCCCN)NC(=O)[C@H](Cc1ccccc1)NC(=O)[C@H](CC(C)C)NC(=O)[C@@H](NC(=O)CNC(=O)[C@H](CC(C)C)NC(=O)[C@@H](N)Cc1ccccc1)C(C)C)C(C)C)C(=O)O` [FLGVLFKVLSKLL], the minimal inhibitory concentration (MIC) is 5.42 µM (≈ 8 µg/mL) in assay [1], ≥ 271 µM in assay [2], 2.03 µM (≈ 3 µg/mL) in assay [3] and 1.35 µM (≈ 2 µg/mL) in assay [4].

In the case of `CC[C@H](C)[C@H](NC(=O)[C@H](CCCCN)NC(=O)[C@H](CCCCN)NC(=O)[C@H](CC(C)C)NC(=O)[C@H](Cc1ccc(O)cc1)NC(=O)[C@H](CC(N)=O)NC(=O)[C@H](Cc1ccc(O)cc1)NC(=O)[C@@H](NC(=O)[C@@H](NC(=O)[C@H](CCCCN)NC(=O)[C@H](C)NC(=O)[C@H](Cc1ccc(O)cc1)NC(=O)[C@H](CCCCN)NC(=O)[C@H](C)NC(=O)CN)[C@@H](C)CC)[C@@H](C)CC)C(=O)N[C@@H](C)C(=O)N[C@@H](CC(N)=O)C(=O)N[C@@H](C)C(=O)N[C@@H](CC(C)C)C(=O)N[C@@H](Cc1c[nH]c2ccccc12)C(=O)O` [GAKYAKIIYNYLKKIANALW], the MIC in [5] was 13.7 µM (≈ 32 µg/mL); in [6], 6.83 µM (≈ 16 µg/mL); in assay [7], 6.83 µM (≈ 16 µg/mL); in assay [8] it was 27.3 µM (≈ 64 µg/mL); in the assay on Vibrio alginolyticus, 6.83 µM (≈ 16 µg/mL); in assay [9] it was ≥ 54.7 µM. The MIC in assay [10] is 27.3 µM (≈ 64 µg/mL); in [11], 6.83 µM (≈ 16 µg/mL); against Vibrio parahaemolyticus, 6.83 µM (≈ 16 µg/mL); in the assay on Lactococcus garvieae, ≥ 54.7 µM; in assay [12] it was 6.83 µM (≈ 16 µg/mL); in the assay with Vibrio harveyi, 1.71 µM (≈ 4 µg/mL). Also, the MIC in assay [13] was 13.7 µM (≈ 32 µg/mL); in [14], 6.83 µM (≈ 16 µg/mL); in the assay with Streptococcus iniae, 27.3 µM (≈ 64 µg/mL); in [15], 3.42 µM (≈ 8 µg/mL); in [16], 13.7 µM (≈ 32 µg/mL); in assay [17] it was ≥ 54.7 µM. Moreover, the MIC in assay [18] is 6.83 µM (≈ 16 µg/mL).

Consider `CC[C@H](C)[C@H](NC(=O)[C@H](Cc1ccccc1)NC(=O)[C@H](CCCCN)NC(=O)[C@H](CC(N)=O)NC(=O)[C@@H](NC(=O)[C@H](Cc1ccc(O)cc1)NC(=O)[C@@H](NC(=O)[C@H](Cc1ccc(O)cc1)NC(=O)[C@H](Cc1ccccc1)NC(=O)[C@H](CCCCN)NC(=O)[C@H](CCCCN)NC(=O)[C@H](C)NC(=O)[C@H](CC(C)C)NC(=O)[C@H](CC(N)=O)NC(=O)[C@H](C)NC(=O)CN)[C@@H](C)O)[C@@H](C)CC)C(=O)N[C@@H](CC(N)=O)C(=O)N[C@@H](Cc1ccc(O)cc1)C(=O)N[C@@H](C)C(=O)N[C@@H](Cc1c[nH]c2ccccc12)C(=O)O` [GANLAKKFYTYINKFINYAW], for which the minimum inhibitory concentration (MIC) was ≥ 106 µM in assay [5]; ≥ 52.8 µM in [6]; ≥ 52.8 µM in [7]; 26.4 µM (≈ 64 µg/mL) in [8]; 13.2 µM (≈ 32 µg/mL) in the assay with Vibrio alginolyticus; ≥ 52.8 µM in assay [9]. The MIC in assay [10] was 13.2 µM (≈ 32 µg/mL); in assay [11] it was 26.4 µM (≈ 64 µg/mL); in the assay on Vibrio parahaemolyticus, 6.6 µM (≈ 16 µg/mL); in the assay on Lactococcus garvieae it was ≥ 106 µM; in assay [12], 13.2 µM (≈ 32 µg/mL); against Vibrio harveyi it was 3.3 µM (≈ 8 µg/mL). The MIC in assay [13] is ≥ 52.8 µM; in assay [14], 26.4 µM (≈ 64 µg/mL); against Streptococcus iniae, ≥ 106 µM; in assay [15] it was ≥ 52.8 µM; in assay [16], ≥ 52.8 µM; in assay [17], ≥ 52.8 µM. The MIC in assay [18] was ≥ 52.8 µM.
